Data on one compound can be found in paper PMC5341405, “Lapachol, a compound targeting pyrimidine metabolism, ameliorates experimental autoimmune arthritis” (Arthritis Research & Therapy, 2017).

Data set [1] deals with human CD4 T cells. In words: Annexin-V/propidium iodide staining for apoptotic cell death. The format is cell-based. The following applies: human CD4 T cells, 10, 30, and 100 μM. How it is done: We next assessed the antiproliferative effect of LAP. To this end, freshly isolated mouse CD4 T cells were labelled with Dye Efluor 670 and stimulated with anti-CD3/CD28 in the presence of LAP or LEF (10, 30, and 100 μM) for 4 days. […] We also investigated the effect of LAP in human CD4 T cells isolated from the peripheral blood of healthy donors. […] Additionally, we performed annexin-V/propidium iodide (PI) staining of human CD4 T cells treated with LAP or LEF to assess apoptotic cell death. […] Thus, the reduction of T-cell proliferation by LAP below 100 μM was primarily due to inhibition of the proliferative response rather than a reduction of cellular viability by toxicity.

The test system of data set [2] is antigen-induced arthritis (AIA) in C57BL/6 mice. Briefly: Antigen-induced arthritis (AIA). The format is in vivo.
Another data set deals with murine CD4 T cells. In words: Proliferation assay of murine CD4 T cells (dye dilution, flow cytometry). The format is cell-based, C57BL/6 mice. An excerpt: (§1) Human CD4 T cells were purified from the whole blood of healthy volunteers. Briefly, peripheral blood mononuclear cells (PBMCs) were isolated by Percoll gradient (Sigma-Aldrich, St. Louis, MO, USA). CD4 T cells were isolated from PBMCs using Isolation Kit (Miltenyi Biotec, Bergisch Gladbach, Germany). For murine CD4 T cells, lymph nodes from naive C57BL/6 male mice were harvested, and CD4 T cells were purified using Isolation Kit (Miltenyi Biotec, Bergisch Gladbach, Germany) according to the manufacturer’s recommendations.
(§2) A total of 1 × 10^5 CD4 T cells were labeled with 1 μM Dye Efluor® 670 (eBioscience, San Diego, CA, USA) for 15 min at 37 °C and cultured in RPMI-1640 10% FBS for 4 days in a 96-well U-bottom plate (Falcon, Franklin Lakes, New Jersey, USA) with the LAP salt diluted in RPMI-1640 (10, 30, and 100 μM), LEF diluted in RPMI-1640 (10, 30, and 100 μM; Arava®, Sanofi, France) and/or uridine (30, 100, and 300 μM; Sigma-Aldrich, St. Louis, MO, USA) in the presence of anti-CD3 (3 μg/ml) and anti-CD28 (1.5 μg/ml). The proliferation of CD4 T cells was determined by dye dilution in flow cytometry analysis. The results were expressed as the percentage of suppression using the following formula: [proliferation of CD4 T cells only – (proliferation of T CD4 cells with LEF or LAP)/proliferation of CD4 T cells only] × 100.

For data set [3], the system named is human CD4 T cells. Briefly: Proliferation assay of human CD4 T cells (dye dilution, flow cytometry). It counts as cell-based.
Description: as §1, §2

Setting [4] is: 10 mg/kg orally, recall with mBSA 100 μg/ml for 96 h.
[5] abbreviates: 10, 30, and 100 μM, 4 days, anti-CD3/CD28.

For the compound `CC(C)=CCC1=C(O)C(=O)c2ccccc2C1=O` [LAP, 2-hydroxy-3-(3methyl-2-butenyl)-1,4-naphthoquinone], the “toxicity (apoptotic cell death, annexin-V/PI)” value with human CD4 T cells [1] is listed as “only the highest concentration of LAP (100 μM) was toxic”. For the same compound, in data set [2] (10 mg/kg orally once a day over 9 days, 6 h after mBSA challenge), the “leucocyte infiltration into the knee joint” value was “remarkable reduction in leucocyte infiltration”. The “serum levels of anti-mBSA total IgG” value in data set [2] (10 mg/kg orally once a day over 9 days, day 21) was “did not find differences”. In addition, in data set [2] (setting [4]), the “mBSA-specific production of IFN-γ by draining lymph node cells and splenocytes” value is “significantly reduced”; the “mBSA-specific production of IL-17 by draining lymph node cells and splenocytes” value was “significantly reduced”. The “effect on proliferation of murine CD4 T cells” value in the data set with murine CD4 T cells (setting [5]) was “inhibited the proliferation of murine CD4 T cells in a dose-dependent manner”. Besides, the “suppression of proliferation compared with LEF” value with murine CD4 T cells (murine CD4 T cells, same equivalent concentrations) is “greater ability to suppress the proliferation”. In the data set with human CD4 T cells [3] (setting [5]), the “effect on proliferation of human CD4 T cells” value is “dose-dependent inhibition of human T-cell proliferation”. In the data set with human CD4 T cells [3] (human CD4 T cells, same equivalent concentrations), the “suppression of proliferation compared with LEF” value is given as “greater ability to suppress the proliferation”. In addition, the “antiproliferative effect in the presence of uridine” value with human CD4 T cells [3] (human CD4 T cells, uridine 30, 100, and 300 μM) was “uridine was able to reverse the antiproliferative effect of LAP in a dose-dependent manner”.
